Measured values reported in PMC7217877, “N-AS-triggered SPMs are direct regulators of microglia in a model of Alzheimer’s disease” (Nature Communications, 2020).
Where “and” joins values, the source holds several entries; their conditions need not be identical. Equal values may be shown once.

What was measured:
[1] = system: APP/PS1 mice; assay: fear conditioning (Supplementary Fig 7e); assay type: in vivo, mouse; settings: N-AS vs vehicle APP/PS1
Procedure: Transgenic mouse lines over-expressing the hAPP695swe (APP) and presenilin-1M146V (PS1) mutations were originated from GlaxoSmithKline (Harlow, UK)[32] and maintained as described previously. We purchased 5×FAD mice from Jackson Labs (Stock number. 34840-JAX). Because APP/PS1 and 5xFAD mice show sex differences in disease progression, we used only male mice. To examine possible therapeutic effect of N-AS and aspirin in APP/PS1 mice, the N-AS (30 mg kg^−1, Sigma-Aldrich, 01912) was injected daily s.c. for 8 weeks to 7-months-old APP/PS1 mice until the age of 9 months, and aspirin (2 mg kg^−1, Sigma-Aldrich, A5376)[33] was administrated orally to 7-months-old APP/PS1 mice for 8 weeks. […] Block randomization method was used to allocate the animals to experimental groups. To eliminate the bias, we were blinded in experimental progress such as data collection and data analysis. Mice were housed at temperature of 22 °C and a 12 h day/12 h night cycle with free access to tap water and food pellets. All protocols were approved by the Kyungpook National University Institutional Animal Care and Use Committee. […] Freezing was analyzed for 5 min. […] Overall activity in the box was measured, and the amount of time and distance traveled in the center arena was noted. […] The total number of transitions, latency to first enter the light chamber, distance traveled, and time spent in each chamber were recorded.

[2] = solubility (stated in discussion); assay type: physicochemical
[3] = system: microglia; assay: acetyl-CoA level in primary cells (assay kit); assay type: cell-based, C57BL/6 mice; settings: Ab 10mM, replicates
Procedure: To confirm the generation and roles of N-AS in neurons, cells from E18 C57BL/6 mice were prepared as previously described. Cortices were dissected and then dissociated followed by incubation in papain (Worthington) at 37 °C for 15 min. Neurons were plated on poly-L-lysine-coated coverslips with neuronal culture medium, serum-free Neurobasal medium (Gibco) containing 2% B27 supplements (Gibco), 1 mM Glutamax supplement (Gibco), and 100 U ml^−1 streptomycin/ 100 U ml^−1 penicillin (Gibco) at 37 °C in a humidified atmosphere of 5% CO2. Aβ 1–42 (10 μM, 24 h, Invitrogen, 03112) was exposed to neurons and the cells were analyzed for the generation and roles of N-AS. Primary astrocyte cultures were prepared from C57BL/6 mice as described previously. In brief, after removal of the meninges, postnatal day 7 (P7) mouse brain tissues were minced and incubated in a rocking water bath at 37 °C for 30 min in the presence of 0.25% trypsin-EDTA (Sigma-Aldrich). Enzyme-digested dissociated cells were triturated with astrocyte-specific medium (DMEM/F12 containing 10% FBS and 1% penicillin-streptomycin) and centrifuged at 155×g for 8 min. […] The human microglia treated with Aβ 1–42 and/or zileuton was incubated with N-AS (2.5 μM, 2 h, Sigma-Aldrich, 01912), and were analyzed for the generation and roles of N-AS. […]

Compound	memory formation, fear conditioning [1]	solubility, in words [2]	acetyl-CoA (Fig 3e) [3]
CCCCCCCCCCCCC/C=C/[C@@H](O)[C@H](CO)NC(C)=O [N-AS, N-((2S,3R,E)-1,3-Dihydroxyoctadec-4-en-2-yl)acetamide]	largely protected from this defect	poor solubility	
Ab: Aβ 1–42 (Invitrogen, 03112) used to induce an AD environment in cells			0.5557 and 0.2327 and 0.5301 and 0.5514 and 0.536 and 0.6185
